Test results reported in patent US20250051324A1, “PARP INHIBITOR, PHARMACEUTICAL COMPOSITION COMPRISING SAME, AND USE THEREOF” (KEYTHERA (SUZHOU) BIO-PHARMACEUTICALS CO., LIMITED, priority 2021, published 2025).
Like-named read-outs stand apart in the source and are kept apart here.

What was measured:
[1] = tested on: breast cancer BR-05-0044E; type: in vivo, mouse; conditions: for Tumor Growth Inhibition Rate (TGI): 21 days
Procedure: Test Objective: The in vivo efficacy of the test compound was evaluated in a subcutaneous xenograft tumor model of breast cancer BR-05-0044E in NOD SCID mice.
Experimental Animals: Female NOD SCID mice, 6-8 weeks old, weighing 18-20 grams were provided by Beijing Charles River Laboratory Animal Technology Co., Ltd. The animals were acclimated in the experimental environment for 3-7 days before the experiment. The animals were housed in SPF-grade animal rooms in IVC cages (individually ventilated cages) with 4 mice per cage. All cages, bedding, and drinking water were sterilized before use. Cages, feed, and water were changed twice a week. The housing environment and lighting conditions were as follows: temperature: 20-26° C., humidity: 40-70%, light cycle: 12 hours light, 12 hours dark.
PDX Model Establishment: The human breast cancer BR-05-0044E model was initially derived from clinical samples surgically removed. After tumor tissue was expanded in mice, 20-30 mm^3 BR-05-0044E tumor tissue blocks were subcutaneously implanted into the right flank of each mouse. Tumor growth was monitored, and when the average tumor volume reached approximately 150-200 mm^3, the mice were randomly grouped for administration. Animals were weighed, and tumor volume was measured before administration. Random grouping was based on tumor volume (random block design).
Experimental Groups: The experiment was divided into the following groups: 1. Vehicle control group, 2. Compound 1 0.1 mg/kg, 3. Compound 1 0.3 mg/kg, 4. Compound 1 1.0 mg/kg. All groups were administered orally by gavage once daily. Routine checks included observing tumor growth and the impact of drug treatment on the animals' daily behavior (such as activity, food and water intake, body weight changes (measured twice a week), appearance, or other abnormalities). The animal number of deaths and side effects in each group were recorded.
Experimental Indicators: The experimental indicators were to assess whether tumor growth was inhibited, delayed, or cured. Tumor diameter was measured twice a week with calipers. Tumor volume was calculated using the formula: V=0.5a×b^2, where a and b represent the tumor's length and width, respectively.
The efficacy of the compound on inhibiting tumor was evaluated by tumor volume and tumor growth inhibition rate (TGI). TGI (%) was calculated as follows: TGI (%)={1−(Average Tumor volume at end of administration in treatment group−Average Tumor volume at start of administration in treatment group)/(Average Tumor volume at end of administration in vehicle control group−Average Tumor volume at start of administration in vehicle control group)}×100%.

PARP1 = PARP1 (Homo sapiens (Human), UniProt P09874); assay: PARP1 trapping assay; type: biochemical; conditions: read-out: Inhibitory Effect on PARP1 Trapping IC50
Sequence of PARP1 (P09874 whole entry): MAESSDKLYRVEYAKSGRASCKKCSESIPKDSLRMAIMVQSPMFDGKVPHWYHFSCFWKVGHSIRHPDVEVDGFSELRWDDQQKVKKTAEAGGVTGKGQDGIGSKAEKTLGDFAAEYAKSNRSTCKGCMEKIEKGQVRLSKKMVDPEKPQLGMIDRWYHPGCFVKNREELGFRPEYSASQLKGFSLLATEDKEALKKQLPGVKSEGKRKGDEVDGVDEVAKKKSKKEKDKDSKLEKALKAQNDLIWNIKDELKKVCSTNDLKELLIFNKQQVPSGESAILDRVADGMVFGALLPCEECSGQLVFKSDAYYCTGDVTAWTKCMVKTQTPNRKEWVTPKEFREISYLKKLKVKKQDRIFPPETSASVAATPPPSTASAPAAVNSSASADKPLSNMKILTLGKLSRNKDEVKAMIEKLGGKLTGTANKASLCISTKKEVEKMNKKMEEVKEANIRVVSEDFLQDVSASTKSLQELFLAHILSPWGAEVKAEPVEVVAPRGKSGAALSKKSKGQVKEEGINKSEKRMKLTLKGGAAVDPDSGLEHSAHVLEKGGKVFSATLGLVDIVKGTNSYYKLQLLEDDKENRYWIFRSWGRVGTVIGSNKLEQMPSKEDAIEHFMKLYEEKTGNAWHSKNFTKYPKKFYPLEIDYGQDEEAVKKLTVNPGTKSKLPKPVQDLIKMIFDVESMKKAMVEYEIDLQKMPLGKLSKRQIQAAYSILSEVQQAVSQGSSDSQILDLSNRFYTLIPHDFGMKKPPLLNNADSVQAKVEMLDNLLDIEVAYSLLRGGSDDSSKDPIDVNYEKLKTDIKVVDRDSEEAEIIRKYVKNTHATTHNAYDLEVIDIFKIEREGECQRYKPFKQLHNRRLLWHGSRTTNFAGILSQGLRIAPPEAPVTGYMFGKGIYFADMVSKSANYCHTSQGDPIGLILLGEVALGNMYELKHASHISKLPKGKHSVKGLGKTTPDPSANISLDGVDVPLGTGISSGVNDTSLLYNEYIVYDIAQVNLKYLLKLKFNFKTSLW
Outline: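 PARP1 and PARP2 with GST-Tb antibody and probe incubated with serially diluted compounds for 45 min at room temperature, then NAD added for 10 min before plate reading. Percent inhibition derived from compound, blank and vehicle control readings.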

[2] = tested on: MDA-MB-436 breast cancer cells; assay: Cell proliferation assay, MDA-MB-436; type: cell-based; conditions: Homo sapiens, MDA-MB-436, 168 h, read-out: MDA-MB-436 Cell IC50
Outline: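 Cells seeded 16 h, then exposed to a 9-point 1:3 compound dilution series for 7 days at 37° C., 5% CO2; DMSO-matched and cell-free controls. Viability by CellCounting-Lite luminescence; IC50 from log concentration versus % inhibition.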

[3] = tested on: peripheral blood reticulocytes; assay: Effect of compound on rat reticulocytes; type: in vivo; conditions: 4 days
Procedure: Test Objective: The effect of the compound on peripheral blood reticulocytes was evaluated to determine its impact on bone marrow hematopoietic function.
Test Compounds: Olaparib, Compound 1
Experimental Animals: Male Sprague Dawley rats were purchased from Beijing Charles River Laboratory Animal Technology Co., Ltd. Housing and Management: The experimental animals were housed in SPF-grade, temperature- and humidity-controlled clean rooms, using individually ventilated cages (IVC) with no more than 5 rats per cage. Temperature/humidity was controlled within the range of (23±3)° C./40-70%. Feed and water: SPF-grade rat feed, sterilized by cobalt-60 irradiation. Drinking water was ultrafiltered and autoclaved. Animals had free access to sterile food and water. Animal identification: ear tags.
Experimental Method: The experiment was divided into the following 5 groups: vehicle control group; Olaparib 100 mg/kg; Compound 1 0.1 mg/kg; Compound 1 0.3 mg/kg; and Compound 1 1.0 mg/kg. All treatments were administered orally by gavage once daily for 4 days. Blood samples were collected before and after treatment to measure peripheral blood reticulocyte counts.

## CNC(=O)c1ccc(N2CCN(Cc3cnc4c(C)c(C(F)(F)F)c(=O)[nH]c4c3)CC2)cn1 [Compound 1, N-methyl-5-(4-((8-methyl-6-oxo-7-(trifluoromethyl)-5,6-dihydro-1,5-naphthyridin-3-yl)methyl)piperazin-1-yl)picolinamide]
[1]; 0.1 mg/kg oral once daily
  Tumor Growth Inhibition Rate (TGI): 105%
[1]; 0.3 mg/kg oral once daily
  Tumor Growth Inhibition Rate (TGI): 106%
[1]; 1.0 mg/kg oral once daily
  Tumor Growth Inhibition Rate (TGI): 107%
[1]; mouse, in vivo
  Body weight vs vehicle control group: no significant difference
PARP1
  IC50: 1.33 nM
[2]
  IC50: 1.59 nM
[3]; 0.1 mg/kg oral once daily
  Reticulocyte Inhibition Rate: 12.2%
[3]; 0.3 mg/kg oral once daily
  Reticulocyte Inhibition Rate: 33.8%
[3]; 1.0 mg/kg oral once daily
  Reticulocyte Inhibition Rate: 41.9%
[3]; 0.1, 0.3 and 1.0 mg/kg, p>0.05
  Effect on peripheral blood reticulocytes (in words): no significant effect
